Test results from patent US20250090530A1, “COMBINATIONS FOR THE TREATMENT OF CANCER” (Terns Pharmaceuticals, Inc., priority 2023, published 2025).
Each block holds one molecule with its values, some of them ahead of it.

Legend:
K562 [1] = experiment: Fixed molar combinations with active site TKIs, curve shift and isobologram analyses (CellTiter-Glo viability); assay type: cell-based
BaF3-BCR-ABL-T315I = experiment: Expanded combination matrix, excess over Bliss; assay type: cell-based; details: 72 hours
Ku812 [2] = experiment: Fixed molar combinations with active site TKIs, curve shift and isobologram analyses (CellTiter-Glo viability); assay type: cell-based
BaF3BCR-ABL-T315I = experiment: Fixed molar combinations, curve shift and isobologram analyses; assay type: cell-based; details: 72 hours
kinase panel = experiment: In vitro kinase panel (substrate phosphorylation assays); assay type: biochemical; details: at 1 μM
K562 [3] = experiment: Expanded combination matrix, BLISS synergy (CellTiter-Glo viability); assay type: cell-based
Ku812 [4] = experiment: as above; assay type: cell-based

Compound: O=C(Nc1ccc(OC(F)(F)Cl)cc1)c1cnc(N2CC[C@@H](O)C2)c(-c2cc[nH]n2)c1 [Asciminib, asciminib]
- Summary of Observations (synergy by curve shift and isobologram analyses) (K562 [1]; combination partner Dasatinib): Synergy at IC90
- Summary of Observations (synergy by curve shift and isobologram analyses) (K562 [1]; combination partner Imatinib): Synergy at IC75 and IC90
- Summary of Observations (synergy by curve shift and isobologram analyses) (K562 [1]; combination partner Ponatinib): Synergy at IC75 and IC90
- Excess over Bliss score sum (BaF3-BCR-ABL-T315I; Compound 2 dasatinib): 3.19
- Highest excess over Bliss score (BaF3-BCR-ABL-T315I; Compound 2 dasatinib): 0.27
- Excess over Bliss score sum (BaF3-BCR-ABL-T315I; Compound 2 flumatinib): 0.81
- Highest excess over Bliss score (BaF3-BCR-ABL-T315I; Compound 2 flumatinib): 0.15
- Excess over Bliss score sum (BaF3-BCR-ABL-T315I; Compound 2 imatinib): 1.29
- Highest excess over Bliss score (BaF3-BCR-ABL-T315I; Compound 2 imatinib): 0.15
- Excess over Bliss score sum (BaF3-BCR-ABL-T315I; Compound 2 nilotinib): 0.36
- Highest excess over Bliss score (BaF3-BCR-ABL-T315I; Compound 2 nilotinib): 0.05
- Excess over Bliss score sum (BaF3-BCR-ABL-T315I; Compound 2 ponatinib): 0.83
- Highest excess over Bliss score (BaF3-BCR-ABL-T315I; Compound 2 ponatinib): 0.14
- Summary of Observations (synergy by curve shift and isobologram analyses) (Ku812 [2]; combination partner Dasatinib): Additivity
- Summary of Observations (synergy by curve shift and isobologram analyses) (Ku812 [2]; combination partner Imatinib): Additivity
- Summary of Observations (synergy by curve shift and isobologram analyses) (Ku812 [2]; combination partner Ponatinib): Additivity
- Conclusion (synergy by curve shift and isobologram analyses) (BaF3BCR-ABL-T315I; Reference dasatinib): synergy
- Conclusion (synergy by curve shift and isobologram analyses) (BaF3BCR-ABL-T315I; Reference flumatinib): no synergy
- Conclusion (synergy by curve shift and isobologram analyses) (BaF3BCR-ABL-T315I; Reference nilotinib): no synergy

- Inhibition of any kinase in in vitro kinase panel (kinase panel): ≤ 50%
Compound: C[C@H](CO)n1c(C(F)F)nc2cc(C(=O)Nc3ccc(OC(F)(F)Cl)cc3)cc(-c3cncnc3)c21 [Compound A, (R)—N-(4-(chlorodifluoromethoxy)phenyl)-2-(difluoromethyl)-1-(1-hydroxypropan-2-yl)-7-(pyrimidin-5-yl)-1H-benzo[d]imidazole-5-carboxamide]
- Interaction in in vitro combination studies (K562 [1]; with multiple TKIs): works synergistically
- Strongest BLISS score (K562 [3]; combination partner Dasatinib): 0.16
- Summary of Observations (BLISS synergy) (K562 [3]; combination partner Dasatinib): BLISS synergy
- Strongest BLISS score (K562 [3]; combination partner Imatinib): 0.12
- Summary of Observations (BLISS synergy) (K562 [3]; combination partner Imatinib): BLISS synergy
- Strongest BLISS score (K562 [3]; combination partner Ponatinib): 0.17
- Summary of Observations (BLISS synergy) (K562 [3]; combination partner Ponatinib): BLISS synergy
- Interaction in in vitro combination studies (Ku812 [2]; with multiple TKIs): at least additively
- Strongest BLISS score (Ku812 [4]; combination partner Dasatinib): 0.08
- Summary of Observations (BLISS synergy) (Ku812 [4]; combination partner Dasatinib): Weak synergy observed
- Strongest BLISS score (Ku812 [4]; combination partner Imatinib): 0.05
- Summary of Observations (BLISS synergy) (Ku812 [4]; combination partner Imatinib): Weak synergy observed
- Strongest BLISS score (Ku812 [4]; combination partner Ponatinib): 0.07
- Summary of Observations (BLISS synergy) (Ku812 [4]; combination partner Ponatinib): Weak synergy observed
